Experimental data as given in patent US5573773A, “Stable highly concentrated formulations of fluorescein derivatives” (Ciba Geigy Corporation, priority 1992, dated 1996).
Like-named read-outs stand apart in the source and are kept apart here.

Columns and labels:
[1] = tested on: T4 tumour cells; details: over 10 minutes
Text: The higher the extracellular concentration of FDA, the higher the resultant intracellular concentration of fluorescein.

[2] = tested on: rabbit lens epithelium; assay: cytotoxic effect of irradiation of intracellular fluorescein in vivo on rabbit lens epithelium
Procedure: The cytotoxic effect of the irradiation of intracellular fluorescein with […] laser light (argon) is investigated in vivo on rabbit lens epithelium. This is done by first treating both rabbit eyes with Voltaren® eye drops (3 times over 24 hours) and expanding the pupillae with a mydriatic. The rabbits are operated on under a full anaesthetic. After a small incision of the cornea, the anterior chamber of the eye is thoroughly rinsed for 1 minute with sodium chloride solution (to remove natural chamber water), then slowly rinsed with 5 ml of FDA solution (1 ml/min) and filled, thereafter kept for a further 5 minutes and once more rinsed with sodium chloride solution for 1 minute (to remove excess FDA solution). While washing the chamber with FDA solution, sodium chloride solution is dropped onto the cornea (for rapid dilution and removal of the FDA solution flowing back from the chamber). […] Finally, irradiation (0.92 W to 0.64 W) is carded out for 30 seconds, the circular irradiation surface on the plane of the lens being 95 mm^2 (11 mm diameter). […] All investigated irradiation doses (291 mJ/mm^2 to 19 mJ/mm^2) were effective.

[3] = tested on: human T24 carcinoma cells; assay: intracellular uptake and generation of fluorescein from FDA in T24 carcinoma cells by microscopic fluorimetry
Text: (§3) After removal of FDA from the tissue culture medium, the generation of fluorescein from the cells can be measured. […] The intensity of fluorescence of intracellular fluorescein fades when the fluorescein is correspondingly excited. The higher the intracellular concentration of fluorescein at a given irradiation energy, the stonger this fading is: the lower level for a fading effect is 0.004 mmol/l of intracellular fluorescein for 71 mJ/mm^2 and 0.002 mmol/l for 560 mJ/mm^2 (irradiation time 120 seconds).

[4] = tested on: living cells; assay: uptake by living cells; type: cell-based
Text: (§1) Fluorescein therefore accumulates temporarily in the cells. […] Intensive irradiation reduces the intensity of fluorescein.
(§2) Loading the intracellular space of cells with fluorescein is, however, complicated by the fact that FDA is also hydrolysed by esterases in the extracellular fluid. The amount of FDA available for cell loading is thereby reduced. For reproducible clinical use it is therefore advisable to lower the concentration of extracellular esterases. This is conveniently done by washing the environment of the particular area which it is desired to treat. A further problem may arise from the fact that the FDA diffuses away from the site of actual use and, as a consequence thereof, is also taken up by cells that are not to be treated at all. This problem can be countered by optimising the local application of FDA as well as the defined irradiation, typically by using a particularly well focussed beam of light.

[5] = tested on: rabbit eye cornea; assay: cytotoxic effect of irradiation of intracellular fluorescein in vivo on rabbit eye cornea; details: for lowest effective energy for fading effect: 488 nm argon laser
Procedure: The cytotoxic effect of the irradiation of intracellular fluorescein with 488 nm laser light (argon) is investigated in vivo on rabbit eye cornea. FDA solution is dropped on to the cornea for 10 minutes, followed by washing with physiological sodium chloride solution. Irradiation is afterwards effected. The intensity of florescence on the cornea rises sharply during this time, then slowly falls to zero over about 5 hours after washing. Irradiation of the fluorescing cornea results in black specks the size of which matches the area irradiated by the laser. The lowest effective energy for this fading effect is about 2.4 J/mm^2 with 0.01 mmol/l of FDA and 0.11 J/mm^2 with 0.02 mmol/l of FDA. […] The lower limit of the irradiation energy for this cytotoxic effect is up to 0.38 mJ/mm^2 (5 seconds and 20 seconds) using 0.02 mmol/l of FDA.

[6] = tested on: human T24 carcinoma cells; assay: intracellular uptake of fluorescein from FDA dissolved in viscous medium Hymecel; type: cell-based
Text: Eight minutes after removal of the viscous solution and washing the cells, the intracellular fluorescein concentration is 0.004 to 0.005 mmol/l after 0.01 mmol/l of FDA, 0.007 to 0.009 mmol/l after 0.02 mmol/l of FDA and 0.019 mmol/l after 0.04 mmol/l of FDA.

[7] = in vitro; details: human, t24 carcinoma cells
Text: as §3

[8] = tested on: human T24 carcinoma cells; assay: fading of intracellular fluorescein on irradiation in T24 carcinoma cells; type: cell-based
[9] = uptake by living cells; type: cell-based; details: living cells; intracellular; read-out: half-life of fluorescein within a cell
Text: as §1, §2

[10] = tested on: human T24 carcinoma cells; assay: cells; details: read-out: cells killed
Text: The cytoxic action of irradiation (excitation 480 nm) of intracellular fluorescein from FDA is investigated using tissue culture of human T24 carcinoma cells. This is done by fluorometric determination of the intracellular fluorescein concentration under a microscope (excitation 480 nm; emission 520 nm) in single cells and the vitality via the uptake of propidium iodide.

CC(=O)Oc1ccc2c(c1)Oc1cc(OC(C)=O)ccc1C21OC(=O)c2ccccc21 [FDA, fluorescein diacetate]
plateau concentration of intracellular fluorescein ([1]; 1 μm FDA solution): 25 μm
plateau concentration of intracellular fluorescein ([1]; 100 μm FDA solution): 70 μm
effectiveness of investigated irradiation doses ([2]; 291 mJ/mm^2 to 19 mJ/mm^2): effective
fluorescence of the cornea surface near the incision site ([2]; FDA solution in anterior chamber): fluoresces minimally
fluorescence of the lens surface after irradiation ([2]; after irradiation): no longer fluoresces
fluorescence of the anterior lens capsule ([2]; before irradiation, epifluorescent stereomicroscope): constant marked increase of fluorescence
histological evaluation of lens in irradiation field ([2]; sacrificed about 18 hours later, irradiation 30 seconds): total necrosis of the lens epithelium and microscopically unchanged basal membrane, pyknotic nuclear residues and edematous swelling of the anterior subcapsular area of the lens
intracellular fluorescein concentration ([3]; 0.0001 mmol/l of FDA): no longer measurable
intracellular fluorescein concentration ([3]; 0.001 mmol/l of FDA, after 10 minutes): 0.004 mmol/L
intracellular fluorescein concentration ([3]; 0.01 mmol/l of FDA, after 10 minutes): 0.01 mmol/L
intracellular fluorescein concentration ([3]; 0.02 mmol/l of FDA, after 10 minutes): 0.015 mmol/L
intracellular fluorescein concentration ([3]; 0.04 mmol/l of FDA, after 10 minutes): 0.017 mmol/L
duration of linear rise of intracellular fluorescein concentration ([3]; FDA added to medium): about 4 minutes
time to approximately plateau values of intracellular fluorescein concentration ([3]; FDA added to medium): about 10 minutes
uptake by living cells [4]: readily taken up by most living cells
lowest effective energy for fading effect ([5]; 0.01 mmol/l of FDA): about 2.4 J/mm^2
lower limit of irradiation energy for cytotoxic effect ([5]; 0.02 mmol/l of FDA, 5 seconds and 20 seconds): up to 0.38 mJ/mm^2
lowest effective energy for fading effect ([5]; 0.02 mmol/l of FDA): 0.11 J/mm^2
time for cornea fluorescence to fall to zero after washing ([5]; FDA solution dropped on cornea for 10 minutes): about 5 hours
histology of irradiated cornea (black specks) ([5]; irradiated fluorescing cornea): areas of dead epithelial cells in the outermost layer of the cornea
intracellular fluorescein concentration ([6]; 0.04 mmol/l of FDA in Hymecel, 8 minutes after removal and washing): 0.019 mmol/L
increase in intracellular fluorescein concentration and plateau values versus aqueous medium ([6]; FDA in Hymecel): approximately match those after incubation of the cells in aqueous medium

O=C1OC2(c3ccc(O)cc3Oc3cc(O)ccc32)c2ccccc21 [fluorescein]
half-life [7]: 10 to 25 min
fading on irradiation for observation ([8]; 0.1 mW/mm^2, 1 to 10 minutes): no measurable fading
lower level of intracellular fluorescein for a fading effect ([8]; 71 mJ/mm^2, irradiation time 120 seconds): 0.004 mmol/L
lower level of intracellular fluorescein for a fading effect ([8]; 560 mJ/mm^2, irradiation time 120 seconds): 0.002 mmol/L
kinetics order of exclusion of fluorescein from the individual cells ([3]; after removal of FDA from the medium): first order kinetics
uptake of pure fluorescein added to the cells ([3]; pure fluorescein): No uptake can be observed
half-life [9]: ~15 min
uptake by living cells [4]: virtually not taken up by living cells
cytotoxicity at 7 µM ([10]; 15 s): 50%
cytotoxicity at 13 µM ([10]; 15 s): 50%
cytotoxicity at 3 µM ([10]; 2 min): 50%
cytotoxicity at 5 µM ([10]; 2 min): 50%
